Experimental findings from patent US9701672B2, “Dihydropyridinone MGAT2 inhibitors for use in the treatment of metabolic disorders” (BRISTOL-MYERS SQUIBB COMPANY, priority 2014, dated 2017) are described below.

Chain of human MGAT-2 (Q3SYC2 whole entry): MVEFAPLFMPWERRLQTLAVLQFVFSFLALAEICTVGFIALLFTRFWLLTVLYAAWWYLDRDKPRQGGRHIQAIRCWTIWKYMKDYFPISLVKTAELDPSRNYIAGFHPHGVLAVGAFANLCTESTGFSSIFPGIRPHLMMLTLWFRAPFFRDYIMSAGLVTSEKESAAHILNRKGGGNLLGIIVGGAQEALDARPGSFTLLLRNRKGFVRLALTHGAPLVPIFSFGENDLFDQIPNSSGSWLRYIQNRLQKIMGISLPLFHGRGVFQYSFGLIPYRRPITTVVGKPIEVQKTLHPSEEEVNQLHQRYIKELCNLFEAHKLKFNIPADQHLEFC

The target of the assay is human MGAT-2 (Homo sapiens (Human), UniProt Q3SYC2). Description: MGAT LCMS assay (h-MGAT LCMS). In kind it is biochemical. Particulars: human MGAT2 membranes expressed in Sf9 cells; 100 μM 2-oleoylglycerol, 15 μM oleoyl-coenzyme A. The protocol:
The MGAT enzyme reactions were performed in Corning FALCON® 96-well polypropylene plates, in a total volume of 60 μL of 50 mM potassium phosphate buffer pH 7.4, containing a final concentration of 100 μM 2-oleoylglycerol, 15 μM oleoyl-coenzyme A and 0.0013 μg/μL human or mouse MGAT-2 or 0.0026 μg/μL rat recombinant MGAT-2 membranes expressed in Sf9 cells. Assay plates were run through a fully automated robotics system and shaken for 5 seconds every minute for a total 10 minutes. The reactions were then quenched with 120 μL of ice cold methanol containing 1 μg/mL 1,2-distearoyl-rac-glycerol as the internal standard. Plates were shaken for 2 minutes and spun down to remove protein precipitation. After the spin, samples were transferred to LC/MS compatible PCR plates. For LC/MS analysis, a ThermoFisher Surveyor pump, utilizing a Waters […]® C8, 50×2.1 mm column, was used for the chromatography of enzyme products. The buffer system consists of 0.1% formic acid in water with a mobile phase consisting 0.1% formic acid in methanol. The shallow gradient is 90-100% mobile phase in 0.2 min with a total run time of 2.3 min. The first 0.5 minutes of each injection was diverted to waste to eliminate the presence of phosphate buffer in the enzymatic reaction. The column was run at 0.6 mL/min and a temperature of 65° C. Mass spectrometry analysis of the samples was performed on a ThermoFisher Quantum Triple quad utilizing APCI (+) as the mode of ionization. Data was acquired in Single Ion Monitoring (SIM) mode analyzing Diolein=m/z 603.6 (PRODUCT) and 1,2-distearoyl-rac-glycerol (IS)=m/z 607.6. The ratio of Diolein to internal standard (Peak Area Ratio) is utilized to calculate IC50 values.
“NT” denotes “Not tested”.
On to `CC(C)n1ccc(C2=C(c3nnn[nH]3)C(=O)N[C@@](c3ccc(OCCCCCC(F)(F)F)cc3)(C(F)(F)F)C2)n1` [Example 26], for which it took 43.7 nM to reach half-maximal inhibition (IC50).
The molecule `CC(C)(C)n1ccc(C2=C(c3nnn[nH]3)C(=O)N[C@@](c3ccc(OCCCCCC(F)(F)F)cc3)(C(F)(F)F)C2)n1` [Example 27] came in with an IC50 of 185 nM.
The figure for `CN(C)c1ccc(C2=C(c3nnn[nH]3)C(=O)N[C@@](c3ccc(OCCCC(F)(F)F)cc3)(C(F)(F)F)C2)nc1` [Example 28] is 17.6 nM; for `CCn1ccc(C2=C(c3nnn[nH]3)C(=O)N[C@@](c3ccc(OCCCCCC(F)(F)F)cc3)(C(F)(F)F)C2)n1` [Example 29] it is 52.1 nM; for `O=C1N[C@@](c2ccc(OCCCCCC(F)(F)F)cc2)(C(F)(F)F)CC(c2ccn(CC3CC3)n2)=C1c1nnn[nH]1` [Example 30] it is 2.7 nM.
`CC(C)Cn1ccc(C2=C(c3nnn[nH]3)C(=O)N[C@@](c3ccc(OCCCCCC(F)(F)F)cc3)(C(F)(F)F)C2)n1` [Example 31] yielded an IC50 of 61.9 nM.
In the case of `CC(C)n1nc(C2=C(c3nnn[nH]3)C(=O)N[C@@](c3ccc(OCCCCCC(F)(F)F)cc3)(C(F)(F)F)C2)c2ccccc21` [Example 33], the IC50 was 950 nM.
`CC(C)n1cc(C2=C(c3nnn[nH]3)C(=O)N[C@@](c3ccc(OCCCCCC(F)(F)F)cc3)(C(F)(F)F)C2)c2ccccc21` [Example 34] returned an IC50 of 86.9 nM.
The same measure for `CN(C)c1cnc(C2=C(c3nnn[nH]3)C(=O)N[C@@](c3ccc(OCCCC(F)(F)F)cc3)(C(F)(F)F)C2)s1` [Example 35]: 11.5 nM.
Molecule `Cc1cnc(C2=C(c3nnn[nH]3)C(=O)N[C@@](c3ccc(OCCCC(F)(F)F)cc3)(C(F)(F)F)C2)nc1` [Example 38] came in with an IC50 of 34.3 nM.
The same measure for `CC(C)n1ccc(C2=C(c3nnn[nH]3)C(=O)N[C@@](c3ccc(OCCCC(F)(F)F)cc3F)(C(F)(F)F)C2)n1` [Example 39]: 16.6 nM; for `O=C1N[C@@](c2ccc(OCCCC(F)(F)F)cc2F)(C(F)(F)F)CC(c2ccn(C3CCC3)n2)=C1c1nnn[nH]1` [Example 40]: 6.7 nM.
The same measure for `O=C1N[C@@](c2ccc(OCCCC(F)(F)F)cc2F)(C(F)(F)F)CC(c2ccn(C3CC3)n2)=C1c1nnn[nH]1` [Example 41]: 73.6 nM; for `O=C1N[C@@](c2ccc(CCCCC(F)(F)F)cc2F)(C(F)(F)F)CC(c2ccn(CC3CC3)n2)=C1c1nnn[nH]1` [Example 42]: 3 nM.
The same measure for `CCn1ccc(C2=C(c3nnn[nH]3)C(=O)N[C@@](c3ccc(OCCCC(F)(F)F)cc3F)(C(F)(F)F)C2)n1` [Example 43]: 20.2 nM; for `O=C1N[C@@](c2ccc(OCCCCC(F)(F)F)cc2)(C(F)(F)F)CC(c2ccc(C3CC3)s2)=C1c1nnn[nH]1` [Example 44]: 15.2 nM.
`CN(C)c1cnc(C2=C(c3nnn[nH]3)C(=O)N[C@@](c3ccc(OCCCCC(F)(F)F)cc3)(C(F)(F)F)C2)s1` [Example 45] gave an IC50 of 3.5 nM.
The figure for `CC(C)n1ccc(C2=C(c3nnn[nH]3)C(=O)N[C@@](c3ccc(CCCCC(F)(F)F)cc3F)(C(F)(F)F)C2)n1` [Example 46] is 11.4 nM; for `O=C1N[C@@](c2ccc(CCCCC(F)(F)F)cc2F)(C(F)(F)F)CC(c2ccn(C3CCC3)n2)=C1c1nnn[nH]1` [Example 47] it is 2.7 nM.
The same measure for `CCn1ccc(C2=C(c3nnn[nH]3)C(=O)N[C@@](c3ccc(CCCCC(F)(F)F)cc3F)(C(F)(F)F)C2)n1` [Example 49]: 4.5 nM; for `CC(C)Cn1ccc(C2=C(c3nnn[nH]3)C(=O)N[C@@](c3ccc(CCCCC(F)(F)F)cc3F)(C(F)(F)F)C2)n1` [Example 50]: 9.4 nM.
The same measure for `CC(C)Cn1ccc(C2=C(c3nnn[nH]3)C(=O)N[C@@](c3ccc(OCCCC(F)(F)F)cc3F)(C(F)(F)F)C2)n1` [Example 51]: 97.4 nM.
`O=C1N[C@@](c2ccc(OCCCC(F)(F)F)cc2F)(C(F)(F)F)CC(c2ccn(CC3CC3)n2)=C1c1nnn[nH]1` [Example 52] displayed an IC50 of 3.2 nM.
The same measure for `O=C1N[C@@](c2ccc(OCCCC(F)(F)F)cc2F)(C(F)(F)F)CC(c2ccn(CC3CCC3)n2)=C1c1nnn[nH]1` [Example 53]: 44 nM; for `O=C1N[C@@](c2ccc(OCCCC(F)(F)F)cc2Cl)(C(F)(F)F)CC(c2ccc(C3CC3)s2)=C1c1nnn[nH]1` [Example 56]: 0.2 nM.
In turn, `COc1cc(OCCCC(F)(F)F)ccc1[C@]1(C(F)(F)F)CC(c2ccc(C3CC3)s2)=C(c2nnn[nH]2)C(=O)N1` [Example 57] displayed an IC50 of 1.4 nM.
The figure for `CCc1ccc(C2=C(c3nnn[nH]3)C(=O)N[C@@](c3ccc(OCCCCCC(F)(F)F)cc3)(C(F)(F)F)C2)s1` [Example 58] is 2.2 nM.
The same measure for `O=C1N[C@@](c2ccc(OCCCC(F)(F)F)cc2F)(C(F)(F)F)CC(c2ncc(C3CC3)s2)=C1c1nnn[nH]1` [Example 59]: 1.4 nM; for `O=C1N[C@@](c2ccc(OCCCCCC(F)(F)F)cc2)(C(F)(F)F)CC(c2nc3ccccc3s2)=C1c1nnn[nH]1` [Example 60]: 137 nM.
`O=C1N[C@@](c2ccc(OCCCC(F)(F)F)cc2Cl)(C(F)(F)F)CC(c2ccn(C3CC3)n2)=C1c1nnn[nH]1` [Example 61] displayed an IC50 of 120 nM.
Molecule `CCc1cnc(C2=C(c3nnn[nH]3)C(=O)N[C@@](c3ccc(OCCCC(F)(F)F)cc3F)(C(F)(F)F)C2)s1` [Example 62] yielded an IC50 of 2.1 nM.
The same measure for `O=C1N[C@@](c2ccc(OCCCCCC(F)(F)F)cc2Cl)(C(F)(F)F)CC(c2ncc(C3CC3)s2)=C1c1nnn[nH]1` [Example 63]: 0.7 nM; for `O=C1N[C@@](c2ccc(OCCCC(F)(F)F)cc2Cl)(C(F)(F)F)CC(c2ncc(C3CC3)s2)=C1c1nnn[nH]1` [Example 64]: 1.1 nM.
On to `CCc1ccc(C2=C(c3nnn[nH]3)C(=O)N[C@@](c3ccc(Br)cc3)(C(F)(F)F)C2)s1` [Example 65], for which it took 8.8 nM to reach half-maximal inhibition (IC50).
The figure for `CCc1cnc(C2=C(c3nnn[nH]3)C(=O)N[C@@](c3ccc(OCCCCCC(F)(F)F)cc3F)(C(F)(F)F)C2)s1` [Example 66] is 0.5 nM; for `Cc1ccc(C2=C(C#N)C(=O)N[C@@](c3ccc(OCCCC(F)(F)F)cc3)(C(F)(F)F)C2)s1` [Example 67, (S)-4-(5-Methylthiophen-2-yl)-2-oxo-6-(4-(4,4,4-trifluorobutoxy)phenyl)-6-(trifluoromethyl)-1,2,5,6-tetrahydropyridine-3-carbonitrile] it is 97.6 nM.
The figure for `N#CC1=C(c2ccc(Cl)s2)C[C@](c2ccc(OCCCC(F)(F)F)cc2)(C(F)(F)F)NC1=O` [Example 68, (S)-4-(5-Chlorothiophen-2-yl)-2-oxo-6-(4-(4,4,4-trifluorobutoxy)phenyl)-6-(trifluoromethyl)-1,2,5,6-tetrahydropyridine-3-carbonitrile] is 30.2 nM; for `Cc1csc(C2=C(C#N)C(=O)N[C@@](c3ccc(OCCCC(F)(F)F)cc3)(C(F)(F)F)C2)c1` [Example 69, (S)-4-(4-Methylthiophen-2-yl)-2-oxo-6-(4-(4,4,4-trifluorobutoxy)phenyl)-6-(trifluoromethyl)-1,2,5,6-tetrahydropyridine-3-carbonitrile] it is 148 nM.
